Results as given in US7078389B2, “Chemically modified oligonucleotide for site-directed mutagenesis” (priority 1993, dated 2006).
Several values for one entry are separate records, joined by “and”; a condition that tells them apart may be missing. Identical values can stand only once.

What was measured:
[1] = tested on: supF gene in lambda supF DNA; assay: Targeted mutagenesis of supF gene in lambda supF DNA (in vitro packaging, plaques on E. coli); conditions: for supF mutations per 1000 phage: lambda DNA 3 nM; for supF mutation frequency: plus UVA 1.8 J/cm^2
Method: Targeted mutagenesis was achieved by incubating pso-AG10 with lambda supF DNA in vitro to form triplex at positions 167 to 176 of the supF gene and bring the tethered psoralen into proximity with the targeted base pair at position 167 as shown in Table 1. The numbers in the table represent the frequency of mutations seen in either the supF gene or the cI gene in the lambda supF genome following the indicated treatment. The lambda DNA at 3 nM was incubated with or without a 1000-fold molar excess of the indicated oligonucleotides (3 μM) as described in FIG. 2.
UVA (365 nm) irradiation of selected samples was performed at a dose of 1.8 J/cm^2. A radiometer was used to measure lamp output (typical UVA irradiance of 5–7 mW/cm^2 at 320–400 nm). The DNA was packaged in vitro into phage particles, using the method of Hohn, Methods in Enzymology 68:299–309 (1979), and the phage particles were adsorbed to E. coli and grown as individual plaques to allow genetic analyses of the supF and cI genes.
Photoactivation of the psoralen generated a DNA adduct, and in vitro packaging of the psoralen-AG10. The lambda supF DNA complex allowed growth of the phage in bacteria to fix the adduct into a mutation. The phage particles were grown as individual plaques on a bacterial lawn to detect targeted mutagenesis in the supF gene and to measure the extent of non-targeted mutagenesis by screening for the function of an unrelated gene, the lambda repressor (cI) gene. Mutations in these genes yield colorless plaques among blue ones and clear plaques among turbid ones, respectively.

[2] = tested on: supF gene within the pSP189 SV40 vector; assay: SV40 mutagenesis: vector DNA passaged in COS-7 cells; assay type: cell-based, monkey
Method: FIG. 3 is a schematic representation of the strategy for targeted mutagenesis of SV40 DNA. The 10 base triplex-forming oligonucleotide, psoralen-AG10 (4′hydroxymethyl-4,5′,8-trimethylpsoralen-5′[…]3′) (SEQ ID NO:1), is shown directly above its targeted sequence in the supF gene (base pairs 167–176), contained within the SV40 vector, pSP189. Psoralen-AG10 is incubated with the SV40 vector DNA to allow site-specific triplex formation. Photoactivation of the psoralen by irradiation with long wave ultraviolet light (320–400 nm) is designed to generate an adduct at the targeted base pair (167), as indicated by the arrow. The oligo-plasmid complex is then transfected into monkey COS-7 cells and allowed to replicate for 48 hours. Following purification of the vector DNA by the Hirt lysate procedure (Hirt et al., J. Mol. Biol. 26:365–369 (1967)), the DNA is used to transform E. coli SY204 lacZ125 (Am).
SV40 mutagenesis. The SV40 vector DNA (pSP189) at 80 nM was incubated with psoralen-AG10 or psoralen-GA10 (ranging from 2 to 1000-fold molar excess) and irradiated as described above. The oligonucleotide-plasmid complex was then transfected into monkey COS-7 cells (ATCC #1651-CRL) using cationic liposomes (DOTAP, Boehringer Manheim, Indianapolis, Ind.) at a final concentration of 5 μg/ml in the culture dish. The DNA/oligo/liposome mixture was added dropwise to the cell culture dish with swirling. The following day, the media containing the liposome mixture was replaced by fresh media. Following 48 hours to allow repair and replication, SV40 vector DNA was harvested from the COS cells by the Hirt lysate procedure. Genetic analysis of the supF genes in the SV40 vector was carried out by transformation of E. coli SY204 [lacZ125(Am)] to ampicillin resistance by electroporation using 12–150 ng of Dpn I digested Hirt lysate DNA and a Bio-Rad Gene Pulser apparatus equipped with a Pulse Controller (Bio-Rad, Richmond, Calif.). Mutants were identified by growth in the presence of 65 μg/ml IPTG and 80 μg/ml X-Gal, as described by (Glazer et al., Mol. Cell Biol. 7:218–224 (1987)). These transformants were counted and the mutants (white colonies) were streaked for single colonies.
In this vector system, the SV40 DNA, after appropriate treatment, is introduced into monkey COS cells where repair and replication can occur, producing mutations indicative of mammalian processing of DNA damage. The small, circular vector DNA is recovered from the cells by biochemical separation from the chromosomal DNA (Hirt lysate, Hirt et al., J. Mol. Biol. 26:365–369 (1967)), and it is used to transform E. coli carrying the lacZ (amber) mutation to allow analysis of supF gene function by scoring colonies for β-galactosidase activity (produced via suppression of the amber mutation in lacZ) in the presence of the chromogenic substrate, X-gal. Vectors with wild type supF genes yield blue colonies; those with mutations in supF produce white ones. In order to eliminate misleading data that might arise from viral DNA that was not replicated or repaired in the mammalian cells, the viral DNA is digested before bacterial transformation with the enzyme Dpn I which will restrict DNA that has not been methylated by the mammalian pattern at its recognition site.
The design of the initial experiments to target mutations to SV40 DNA is illustrated in FIG. 3. A 10 base pair region of the supF gene (bp 167–176) was identified as a site amenable to triplex formation because of the homopurine/homopyrimidine run there. Since this run was G-rich, the purine motif for triplex formation was selected (Beal and Dervan, Science 251:1360–1363 (1991)), and an oligonucleotide, 5′[…]3′ (SEQ ID NO:2) (AG10) was synthesized based on this motif. A psoralen derivative, 4′-hydroxymethyl-4,5′,8-trimethylpsoralen, was attached to the oligonucleotide by a phosphodiester linkage at the 5′ adenine via a two carbon linker arm, with the goal of directing mutations to base pair 167.

[3] = tested on: duplex supF DNA; assay: UVA-induced covalent bond formation to duplex supF DNA; assay type: binding, E. coli; conditions: following UVA irradiation
[4] = oligonucleotide 3 μM (1000-fold molar excess), UVA 1.8 J/cm^2
[5] = ratio of oligo to vector 2:1, UVA 1.8 J/cm^2
[6] = ratio of oligo to vector 5:1, UVA 1.8 J/cm^2
[7] = ratio of oligo to vector 10:1, UVA 1.8 J/cm^2
[8] = ratio of oligo to vector 1000:1, no UVA

Substance | supF mutations per 1000 phage [1, 4] | supF mutations per 1000 phage ([1]; oligonucleotide 3 μM, no UVA) | supF mutagenesis without UVA ([1]; no UVA) | Difference between supF and cI mutation frequency ([1]; plus UVA) | Specificity of targeted mutagenesis considering target size of cI (765 bp) and supF (184 bp) ([1]; plus UVA) | supF mutation frequency [1] | Fold higher targeted mutagenesis in SV40 than in bacteriophage lambda grown in E. coli ([2]; 6% to 7% versus 0.23%) | % mutants (supF gene) [2, 5] | % mutants (supF gene) [2, 6] | % mutants (supF gene) [2, 7] | % mutants (supF gene) ([2]; ratio of oligo to vector 1000:1, UVA 1.8 J/cm^2) | % mutants (supF gene) [2, 8] | Mutants per total colonies [2, 8] | Covalent bond to labeled duplex supF DNA [3] | Fold lower frequency of supF mutations than pso-AG10 ([1]; plus UVA) | Mutagenesis relative to background (untreated lambda DNA) ([1]; plus UVA) | supF mutagenesis relative to background ([2]; lower ratios of oligo to vector (below 1000:1), plus UVA) | % mutants (supF gene) ([2]; ratio of oligo to vector 1000:1, UVA 1.8 J/cm^2, listed as psoralen-GA10)
4′-hydroxymethyl-4,5′,8-trimethylpsoralen-^5′AGGAAGGGGG^3′ (DNA NAGGAAGGGGG; 4'-hydroxymethyl-4,5',8-trimethylpsoralen conjugated at 5' end, further chemistry not given here) [pso-AG10] | 2.33 (263/112.872) per 1000 phage | <0.014 (0/69.000) per 1000 phage | No significant mutagenesis | approximately 100 fold | ≤ 500 fold | 0.233% | 30 fold | 2.5% | 4.3% | 6.4% | 7.3% | ≦0.06% | 0/1700 | formed a covalent bond to labeled duplex supF DNA following UVA irradiation |  |  |  | 
pso-^5′GGGGGAAGGA^3′ (DNA NGGGGGAAGGA; psoralen conjugated at 5' end, further chemistry not given here) [pso-GA10, reference compound] | 0.004 (2/504.198) per 1000 phage |  |  | 5 fold |  | 0.0004% |  | 0.07% | 0.13% | 0.06% |  | ≦0.07% | 0/1500 | did not | 582 fold | barely above background | no significant mutagenesis above the background frequency | 0.5% and 0.63%
